{"source": "patent US20230338395A1", "about": "“PROPHYLAXIS AND TREATMENT OF CORONAVIRUS INFECTION” (priority 2020, published 2023)", "key": {"[1]": {"system": "lethal respiratory virus infections", "conditions": "aged mice, intranasal treatment; cited from earlier work"}, "classical swine fever": {"system": "classical swine fever", "design": "species or system pigs", "conditions": "pig, in vivo, 0.1 mg/kg"}, "SARS-CoV-1": {"system": "SARS-CoV-1", "design": "species or system mice", "conditions": "mouse, in vivo"}, "SARS-CoV-2": {"system": "SARS-CoV-2", "assay": "Pulmonary inflammation after SARS-CoV-2 challenge in MRL-Fas lpr mice", "type": "in vivo", "conditions": "40 mg/kg/day intraperitoneal from around day 15 after viral clearance, lungs inspected at day 40 post infection"}, "tlr7 gene expression": {"system": "tlr7 gene expression", "conditions": "SLE-patients; cited from earlier work"}, "COVID-19": {"system": "COVID-19", "conditions": "severely ill COVID-19 patients; cited from earlier work"}}}
{"compound": "Polyinosinic:polycytidylic acid [poly(IC)]", "values": [{"measurement": "protection from lethal respiratory virus infections", "setting": "[1]", "value": "protects aged mice from lethal respiratory virus infections"}, {"measurement": "infection fatality rate", "setting": "classical swine fever", "value": "lower than the infection fatality rate of the untreated subpopulation"}, {"measurement": "protection compared with the other tlr agonists", "setting": "SARS-CoV-1", "value": "most protective"}, {"measurement": "survival", "setting": "SARS-CoV-1", "value": "increase survival"}]}
{"compound": "CCN(CCO)CCCC(C)Nc1ccnc2cc(Cl)ccc12", "note": "(stereo not shown) [hydroxychloroquine]", "values": [{"measurement": "severity of pulmonary inflammation (score 0-4)", "setting": "SARS-CoV-2", "value": "improved"}]}
{"compound": "C=C1CC[C@H](O)C/C1=C/C=C1\\CCC[C@]2(C)[C@@H]([C@H](C)CCCC(C)C)CC[C@@H]12", "note": "[vitamin D3]", "values": [{"measurement": "tlr7 gene expression", "setting": "tlr7 gene expression", "value": "down-regulating tlr7 gene expression"}, {"measurement": "protection from thrombosis and embolism", "setting": "COVID-19", "value": "protect severely ill COVID-19 patients from thrombosis and embolism"}]}
